Results published in patent US7625875B2 (priority 2002, dated 2009).
“And” between values parts separate entries of the source, which are not always exact repeats. Equal entries are not always repeated. Where two headings read alike, the source gives them in different places.

Key:
[1] = tested on: Vero 76, African green monkey kidney cells
CVB-2 = assay: organism not typed; format: cell-based, Coxsackie B-2 virus
CVB-3 = format: cell-based, Coxsackievirus B-3
[2] = tested on: MT-4 human T-lymphocyte cells
Sb-1 = assay: organism not typed; format: cell-based, Sabin type 1 poliomyelitis virus
REO-1 = assay: microbe, parasite or virus in culture; format: cell-based, double-stranded RNA Reovirus
CVB-4 = format: cell-based, Coxsackievirus B-4
CVA-9 = format: cell-based, Coxsackievirus A-9
HepG2 cells [3] = assay: Incorporation of drug into cellular RNA and DNA; conditions: 10 μM [3H] drug, 30 hours
DENV 2 = assay: microbe, parasite or virus in culture; format: cell-based, dengue virus; conditions: read-out: DENV 2
WNV = assay: microbe, parasite or virus in culture; format: cell-based, West Nile virus; conditions: read-out: WNV
YFV = format: cell-based, yellow fever virus; conditions: Tables 30b, 30k-30o
BVDV = format: cell-based, bovine viral diarrhea virus
HepG2 cells [4] = assay: Transmission electron microscopy of mitochondrial ultrastructure; conditions: 10 μM, 14 days
HepG2 cells [5] = assay: Mitochondrial DNA content; format: cell-based, human; conditions: for mtDNA/nuclear DNA (% of Control): 1 μM
Procedure: To assess the potential of mCyd to produce mitochondrial toxicity, several in vitro studies were conducted using the human hepatoma cell lines HepG2 or Huh7.
The significance of this finding is unclear, particularly since mCyd is unlikely to attain a plasma concentration of 50 μM in the clinic. For comparison, lactic acid production increases by 100% over control cells in cells treated with 10 μM FIAU (Cui L, Yoon, et al. J. Clin. Invest. 1995; 95:555-563).

Structure (SMILES)	CC50 [1]	EC50 (CVB-2; read-out: EC50 CVB-2)	EC50 (CVB-3)	CC50 [2]	CC50 (BHK)	EC50 (REO-1; read-out: EC50 REO-1)	EC50 (CVB-4)	EC50 (CVA-9)	EC50 (DENV 2)	EC50 (CVB-2; read-out: CVB-2)	EC50 (WNV)	EC50 (YFV)	EC50 (Sb-1; read-out: Sb-1)	EC50 (BVDV)	EC50 (REO-1; read-out: REO)	also measured
Nc1nc(N)c2ncn([C@@H]3O[C@H](CO)[C@@H](O)[C@H]3O)c2n1 [Compound J, β-D-2-amino-adenosine]	> 100 µM	53 µM	55 µM	50 µM	> 100 µM	> 100 µM	50 µM	53 µM								EC50 (Sb-1; read-out: EC50 Sb-1): 40 µM
Cc1cn([C@H]2C[C@H](N=[N+]=[N-])[C@@H](CO)O2)c(=O)[nH]c1=O [ZDV, zidovudine]																Incorporated drug amount, DNA (HepG2 cells [3]): 0.103 pmole/μg DNA and 0.103 ± 0.0123^a pmole/μg DNA; Incorporated drug amount, RNA (HepG2 cells [3]): 0.0009 pmole/μg RNA and 0.0009 ± 0.0003^a pmole/μg RNA
C[C@@]1(O)[C@H](O)[C@@H](CO)O[C@H]1n1cnc2c(N)nc(N)nc21 [Compound B, β-D-2′-C-methyl-2-amino adenosine]	> 100 µM	75 µM	23 µM	> 100 µM	50 µM	2 µM	32 µM	39 µM	0.7 µM	76 µM	0.3 µM	0.8 µM	90 µM	2.1 µM	2 µM	EC50 (Sb-1; read-out: EC50 Sb-1): 90 µM
Nc1ccn([C@H]2CC[C@@H](CO)O2)c(=O)n1 [ddC, zalcitabine, reference compound]																Electron Microscopy, Lipid Droplet Form. (HepG2 cells [4]): Positive; Electron Microscopy, Mito. Morphol. (HepG2 cells [4]): Loss of Cristae; mtDNA/nuclear DNA (% of Control) (HepG2 cells [5]; 6 day treatment): 44.3 ± 9.3 % of Control; mtDNA/nuclear DNA (% of Control) (HepG2 cells [5]; 14 day treatment): 19.6 ± 8.2 % of Control; reduction of mitochondrial DNA content (HepG2 cells [5]; 6 days): 56%; reduction of mitochondrial DNA content (HepG2 cells [5]; 14 days): 80%; Incorporated drug amount, DNA (HepG2 cells [3]): 0.0055 pmole/μg DNA and 0.0055^b pmole/μg DNA; Incorporated drug amount, RNA (HepG2 cells [3]): 0.0013 pmole/μg RNA and 0.0013^b pmole/μg RNA
C#C[C@@]1(O)[C@H](O)[C@@H](CO)O[C@H]1n1cnc2c(N)ncnc21 [Compound H, β-D-2′-C-ethynyl-adenosine]	60 µM	1.5 µM	1 µM	4.6 µM	15 µM	6 µM	2 µM	2.5 µM	1.1 µM	1.2 µM	1 µM	2 µM	0.7 µM	0.4 µM	6 µM	
C[C@@]1(O)[C@H](O)[C@@H](CO)O[C@H]1n1cnc2c(Cl)nc(N)nc21 [Compound D, β-D-2′-C-methyl-6-chloro-guanosine]	> 100 µM	25 µM	21 µM	> 100 µM	30 µM	0.4 µM	25 µM	37 µM	0.7 µM	25 µM	0.3 µM	1 µM	50 µM	0.7 µM	0.4 µM	EC50 (Sb-1; read-out: EC50 Sb-1): 50 µM
CC(C)[C@H](N)C(=O)OC[C@H]1O[C@@H](n2cnc3c(=O)[nH]c(N)nc32)[C@](C)(O)[C@@H]1OC(=O)[C@@H](N)C(C)C [Compound E, 3′,5′-di-O-valinyl ester of β-D-2′-C-methyl-guanosine]	> 100 µM	33 µM	30 µM	> 100 µM	100 µM	2 µM	35 µM	40 µM	1.4 µM	33 µM	1 µM	1 µM	55 µM	4.9 µM	2.1 µM	
C#C[C@@]1(O)[C@H](O)[C@@H](CO)O[C@H]1n1ccc(N)nc1=O [Compound I, β-D-2′-C-ethynyl-cytidine]	> 100 µM	33 µM	33 µM	≥ 100 µM	> 100 µM	> 100 µM	24 µM	59 µM								EC50 (Sb-1; read-out: EC50 Sb-1): 26 µM
CC(C(=O)c1ccccc1)n1c(N)nc2c(ncn2[C@@H]2O[C@H](CO)[C@@H](O)[C@@]2(C)O)c1=O (stereo partly drawn) [Compound L, β-D-2′-C-methyl-1-(methyl-2-oxo-2-phenylethyl)guanosine]				> 100 µM					4.4 µM	> 100 µM	3 µM	6 µM	> 100 µM	12 µM	12 µM	
C[C@]1(CO)O[C@@H](n2cnc3c(N)ncnc32)[C@H](O)[C@@H]1O																melting point: 96 to 97 °C (dec.)
C[C@@]1(O)[C@H](O)[C@@H](CO)O[C@H]1n1cnc2c(NC3CC3)nc(N)nc21 [Compound K, β-D-2′-C-methyl-2-amino-6-cyclopropyl adenosine]				> 100 µM					4.9 µM	> 100 µM	3.5 µM	10 µM	> 100 µM	18 µM	9.5 µM	
C[C@@]1(O)[C@H](O)[C@@H](CO)O[C@H]1n1cnc2c(N)ncnc21 [Compound A, β-D-2′-C-methyl-adenosine]	80 µM	10 µM	14 µM	4 µM	70 µM	> 70 µM	13 µM	12 µM	2.7 µM	7 µM	3.6 µM	2.7 µM		1.2 µM	> 70 µM	
C[C@@]1(O)[C@H](O)[C@@H](CO)O[C@H]1n1cnc2c(=O)[nH]c(N)nc21 [Compound C, β-D-2′-C-methyl-guanosine]	> 100 µM	30 µM	22 µM	> 100 µM	100 µM	2 µM	12 µM	46 µM	1.4 µM	29 µM	0.6 µM	1.2 µM	50 µM	3.5 µM	2 µM	
Cc1cn([C@@H]2O[C@](C)(CO)[C@@H](O)[C@H]2O)c(=O)[nH]c1=O																melting point: 258 to 260 °C (dec.)
C[C@]1(CO)O[C@@H](n2ccc(=S)[nH]c2=O)[C@H](O)[C@@H]1O																melting point: 65 to 70 °C (dec.)
